Assays:
Type in all cases: in vivo, C57BL/6N male mice
[1] = test system: acute ulcerative colitis model in mice; assay: DSS-induced acute ulcerative colitis mouse model (body weight, DAI, colon length, survival); details: 3% DSS colitis mice, gavage; model group 2.93, blank 0 (FIG. 3C)
Text: In this experiment, DSS was used to construct an acute ulcerative colitis model in mice, and a specific process is shown in FIG. 1. C57BL/6N male mice were placed in an SPF barrier environment for adaptive feeding for one week, while mice with abnormal weight were eliminated. […] From the first day, mice in all groups except the blank group were given drugs by gavage throughout the whole process; from the fourth day, mice in all groups (except the blank group) drank 3% DSS aqueous solution freely for one week; from the tenth day, 3% DSS was replaced with sterile drinking water for experimental mice, and the mice were allowed to recover naturally for one week; on the eighteenth day, the experiment ended and samples were collected from the mice. After the mice were anesthetized, blood was collected from their orbits. After blood collection, the liver, kidney, and spleen tissues of the mice were collected and weighed. The colon tissue from the cecum to the anus of the mice was collected and its length was measured. A 1 cm to 2 cm colon tissue from the anus was fixated in 4% paraformaldehyde solution for histopathological staining. […] During the mouse modeling period, the mouse status was observed daily and the mouse weight was recorded.
The fresh mouse feces were collected and the fecal occult blood was determined according to the instructions of the fecal occult blood assay kit. […]

[2] = test system: colitis-associated colorectal cancer model in mice; assay: AOM/DSS-induced colitis-associated colorectal cancer mouse model (body weight, colon, tumors, serum IL-6)
Protocol: In this experiment, a mouse colitis-associated colorectal cancer model was established using AOM/DSS, and a specific process is shown in FIG. 2. C57BL/6N male mice were placed in an SPF barrier environment for adaptive feeding for one week, while mice with abnormal weight were eliminated. The remaining mice were randomly divided into […], namely: blank group, 3% DSS+normal saline group (a model group), 3% DSS+300 mg/kg mesalazine (a positive drug group), 3% DSS+600 mg/kg hulless barley grass-derived polyphenol crude extract (Example 1), 3% DSS+400 mg/kg hulless barley grass-derived polysaccharide crude extract (Comparative Example 1), 3% DSS+200 mg/kg hulless barley grass-derived lipid crude extract (Comparative Example 2), and 3% DSS+600 mg/kg hulless barley seed-derived polyphenol crude extract (Comparative Example 3). There were ten mice in each group. In the second week, the mice in the model group, positive group, grass polyphenol group, polysaccharide group, lipid group, and seed polyphenol group were intraperitoneally injected with 10 mg/kg AOM. From the third week, the mice drank 3% DSS aqueous solution for one week, and then the DSS aqueous solution was replaced with sterile water for the mice to drink. The experiment ended after six weeks. During the entire experiment, each group of mice was gavaged with medication according to the grouping. The conditions of mice were observed and their weights were recorded each time they were gavaged. At the end of the experiment, all mice were anesthetized, and the colon (from the anus to the cecum), liver, kidney, and spleen tissues of the mice were collected and weighed after dissection. The intestinal contents were gently rinsed with PBS and the length of the mouse colon tissue was measured. The colon was longitudinally cut open with ophthalmic scissors, and the number and size of tumors in the mouse colon were measured with a vernier caliper and recorded. A part of the whole colon of the mouse was taken for the subsequent preparation of colon Swiss rolls, fixated in 4% paraformaldehyde fixative for histopathological analysis, and the remaining tissues were quick-frozen in liquid nitrogen and then transferred to a −80° C. refrigerator for further measurement of qPCR and other experiments.

[3] = test system: colon tissue of colorectal cancer mice; assay: Colon Swiss roll H&E histopathology of colorectal cancer mice; details: AOM/DSS colorectal cancer mice, compared with the model group (FIG. 13)
Protocol: The colon was taken out from the fixative in a fume hood, one end of the colon was gently clamped with ophthalmic forceps, and the entire colon was gently rolled around the forceps in one direction. Be careful not to do it too tight or too loose, otherwise the intestinal villi might fall over or become loose. The Swiss roll was prepared by piercing the edge of the rolled intestine with a fine needle to complete the fixation, and the ophthalmic forceps were removed in the center of the colon. The Swiss roll was placed in an embedding frame and labeled, followed by dehydration and wax immersion, paraffin embedding, paraffin sectioning, dewaxing to water, hematoxylin staining, eosin staining, dehydration and sealing, microscopic examination, and graphic analysis.

[4] = test system: TNF-α, IL-6, IL-1β mRNA; assay: qPCR of inflammatory factors in tumor tissue of colorectal cancer mice
Protocol: (§1) The whole colon of a mouse was divided into two major parts, namely the tumor segment and the white-side segment. 20 mg of tumor tissue and white-side tissue were taken from the same mouse for total RNA extraction and reverse transcription reaction. The specific operation was the same as above.
(§2) The experimental data were plotted using GraphPad Prism9.0, and statistical analysis was conducted using one-way ANOVA, where “ns” indicated no significant difference, “*” indicated p<0.05, “**” indicated p<0.01, “***” indicated p<0.001, and “****” indicated p<0.0001. The relative expression of mRNA in qPCR was calculated using the […] method.

[5] = test system: COX-2, EGFR, INOS genes; assay: qPCR of COX-2, EGFR and INOS genes in tumor tissue of colorectal cancer mice
Protocol: as §1, §2

[6] = test system: intestinal flora; assay: 16S rRNA sequencing of intestinal flora in colorectal cancer mice; details: colorectal cancer mice (FIG. 16D)
Protocol: The mouse feces was collected using a 1.5 mL EP tube, immediately frozen in liquid nitrogen, and stored at −80° C. before sample delivery. 6 samples of mouse colon contents were collected from each group and placed in dry ice for 16S rRNA sequencing by Qingdao Biomarker Technologies Co., LTD.

[7] = AOM/DSS colorectal cancer mice, compared with the model group (FIG. 12C)

SMILES: Nc1ccc(O)c(C(=O)O)c1 [mesalazine]
- disease activity index (DAI) [1]: 2.33
- colon weight per unit length (increase in tumor weight caused by modeling) ([2]; AOM/DSS colorectal cancer mice (FIG. 11C)): effectively reduced the increase in tumor weight caused by modeling
- proportion of tumors above 3 mm [2, 7]: decreased
- proportion of tumors less than 2 mm [2, 7]: increased significantly
- proportion of tumors of 2 mm to 3 mm [2, 7]: decreased
- body weight when the experiment was over ([2]; AOM/DSS colorectal cancer mice, last day (FIG. 10B)): significant decrease
- colon thickness and tumors in pathological sections (H&E) [3]: showed a similar trend
- relative expression level of TNF-α mRNA ([4]; compared with the model group (FIG. 14A)): significantly reduced
- relative expression level of IL-6 mRNA ([4]; compared with the model group (FIG. 14B)): significantly reduced
- relative expression level of IL-1β mRNA ([4]; compared with the model group (FIG. 14C)): significantly reduced
- expression level of COX-2 gene ([5]; compared with the model group (FIG. 15A)): significantly downregulated
- expression level of EGFR gene ([5]; compared with the model group (FIG. 15B)): significantly downregulated
- expression level of INOS gene ([5]; compared with the model group (FIG. 15C)): significantly downregulated
- richness and uniformity of the intestinal flora (rank abundance curve) [6]: closest to those of the blank group

From patent US20260014225A1, “USE OF HULLESS BARLEY GRASS EXTRACT IN CONTROLLING COLORECTAL CANCER AND ULCERATIVE COLITIS” (Shanghai Jiao Tong University, priority 2024, published 2026)
